The record followed here is publication PMC9977398, “Next-generation membrane-active glycopeptide antibiotics that also inhibit bacterial cell division” (Chemical Science, 2023).

The test system of test [1] is MRSA. The test is described as follows: Antagonization assay with Ac2KAA or lipoteichoic acid. The class given is cell-based, S. aureus. To be noted: for change in MIC in presence of lipoteichoic acid: 100 μg/mL lipoteichoic acid as competing ligand. Here is the method:
Ac2KAA can act as a competitive ligand to the target of glycopeptide antibiotics and therefore antagonize antibacterial activity. In the presence of 500 μM of Ac2KAA, the activity of VanQAmC10 (8) was reduced by 2-fold. However, the MIC of vancomycin increased from 0.6 μM to >30 μM ([…] increase in MIC) in presence of the same amount of Ac2KAA. The 2-fold reduction in the activity of VanQAmC10 (8) accounts for the loss of activity due to D-Ala–D-Ala binding. This implied that it acted through additional mechanisms that are independent of Ala-D-Ala binding. The presence of the positive charge in VanQAmC10 (8) could result in interactions with the negatively charged components of the bacterial cell wall like teichoic acid. C-terminal trimethyl ammonium modified vancomycin derivative has been reported to bind to teichoic acid.[32] […]
Antagonization of antibacterial activity of AAV-qC10 was determined by addition of 500 μM
N,N՛-diacetyl–L-Lys–D-Ala–D-Ala or 100 μg/mL of lipoteichoic acid to serial dilutions of the […]

Test [2] concerns biofilms of MRSA. The test is described as follows: Disruption of mature biofilms, confocal microscopy. The format is cell-based, S. aureus. To be noted: 20 μM; for thickness of biofilm after treatment: 24 h, untreated 11.8 μm. The source says: Another growing challenge in treating bacterial infections is the formation of biofilms, which are recalcitrant to antibiotic treatment.[29] Most antibiotics including vancomycin are rendered ineffective against biofilms consisting of both dividing and non-dividing cells, majorly due to their inability to penetrate through the extracellular polymeric matrix. Thus, it is important to develop compounds that eradicate biofilms as well as planktonic cells. Untreated biofilms of MRSA grew to a thickness of 11.8 μm (Fig. S3A ^†). The vancomycin-treated biofilms remained intact with thickness similar to the untreated control. […]
were added to it the wells containing bacterial suspension. Fluorescence has monitored at excitation wavelength of 535 nm (slit width: 10 nm) and emission wavelength of 617 nm (slit width: 5 nm). As a measure of inner membrane permeabilization the uptake of PI was monitor by the increase in fluorescence for 30-50 min. For assessing depolarisation against stationary phase cells of MRSA ATCC 33591, cells were grown to the stationary phase for 16 h. The culture was then diluted to an OD600 of 0.2 and the depolarisation assays was performed as described. The experiments were performed three times independently in duplicates and the graph is representative of the results from all experiments.
Cytoplasmic membrane depolarization assay5
Mid log phase MRSA were harvested (3500 rpm, 5 min), washed in 5 mM glucose and 5 mM HEPES buffer (pH 7.2) in 1:1 ratio and resuspended in 5 mM HEPES buffer, 5 mM glucose and 100 mM KCl solution in 1:1:1 ratio. Then 2 μM of 3, 3′-Dipropylthiadicarbocyanine iodide (DiSC3(5)) was added to bacterial suspension and pre-incubated for 45 min. The fluorescence was monitored at excitation wavelength of 622 nm and emission wavelength of 670 nm. Then 20 μL of test compound and vancomycin were added to black well plates containing bacterial suspension and DiSC3(5) after 2-4 min of fluorescence measurement. As a measure of membrane depolarization fluorescence was monitor for another 35 min. […]

In test [3] the test system is VRE. The experiment in a line: MIC against VRE (strains taken together). To be noted: ratio of MICs. The format is cell-based. Here is the method:
The increase in the carbon content of substituted moieties from six (1) to seven (2 and 3) to ten (5) to twelve (4), increased activity.
VanQAmC14 (10): Yield 65%; HPLC purity 96%; 1H-NMR (400 MHz, DMSO-d6) δ/ppm:
Test compound was assayed in a micro -dilution broth format as per the CLSI guideline. The bacterial freeze dried stock samples were stored at -80 °C. About 5 μL of these stocks were added to 3 mL of the respective broth and the culture was grown for 6 h at 37°C with prior to the experiments. This 6 h grown culture was diluted to give effective cell concentration of 10 5 CFU/mL which was then used for determining MIC. Compounds were serially diluted 2 -fold, in sterile millipore water and 50 μL of these serial dilutions were added to the wells of 96 well plate followed by the addition of about 150 μL of bacterial solution. The plates were then incubated for 18-24 h at 37 °C. The O.D. value at 600 nm was recorded using TECAN (Infinite series, M200 pro) Plate Reade r. Each concentration had triplicate values and the whole experiment was done at least twice and the MIC value was determined by taking the average of triplicate O. D. values for each concentration and plotting it against concentration. The data was then subjected to sigmoidal fitting. From the curve the MIC value was determined, as the point where the O. D. was similar to that of control having no bacteria.

Turning to `CN[C@H](CC(C)C)C(=O)N[C@H]1C(=O)N[C@@H](CC(N)=O)C(=O)N[C@H]2C(=O)N[C@H]3C(=O)N[C@H](C(=O)N[C@H](C(=O)O)c4cc(O)cc(O)c4-c4cc3ccc4O)[C@H](O)c3ccc(c(Cl)c3)Oc3cc2cc(c3O[C@@H]2O[C@H](CO)[C@@H](O)[C@H](O)[C@H]2O[C@H]2C[C@](C)(N)[C@H](O)[C@H](C)O2)Oc2ccc(cc2Cl)[C@H]1O` [Vancomycin, reference compound], the “change in MIC in presence of lipoteichoic acid” value in test [1] is reported as “no change in the MIC”. Moreover, the “fold increase in MIC in presence of Ac2KAA” value in test [1] (500 μM Ac2KAA, MRSA) is greater than 40 fold. In addition, in test [1] (Staphylococcus aureus, 500 μM Ac2KAA, MRSA, read-out: MIC in presence of Ac2KAA), the MIC was greater than 30 µM. Further, in test [2], the “thickness of biofilm after treatment” value was found to be 10.1 μm.
For the molecule `CNC(CC(C)C)C(=O)NC1C(=O)NC(CC(N)=O)C(=O)NC2C(=O)NC3C(=O)NC(C(=O)NC(C(=O)NCCC[N+](C)(C)Cc4ccc(-c5ccccc5)cc4)c4cc(O)cc(O)c4-c4cc3ccc4O)C(O)c3ccc(c(Cl)c3)Oc3cc2cc(c3OC2OC(CO)C(O)C(O)C2OC2CC(C)(N)C(O)C(C)O2)Oc2ccc(cc2Cl)C1O` (stereo not shown) [VanQbiph (4)], the “fold enhancement in activity as compared to vancomycin against VRE” value in test [3] is on record as 40- to 60 fold.
As for `CCCCCCCCCCNC(=O)C[N+](C)(C)CCCNC(=O)C1NC(=O)C2NC(=O)C(NC(=O)C3NC(=O)C(CC(N)=O)NC(=O)C(NC(=O)C(CC(C)C)NC)C(O)c4ccc(c(Cl)c4)Oc4cc3cc(c4OC3OC(CO)C(O)C(O)C3OC3CC(C)(N)C(O)C(C)O3)Oc3ccc(cc3Cl)C2O)c2ccc(O)c(c2)-c2c(O)cc(O)cc21` (stereo not shown) [VanQAmC10 (8)], the “fold enhancement in activity as compared to vancomycin against VRE” value in test [3] is reported as roughly 160 fold. The “change in MIC in presence of lipoteichoic acid” value in test [1] is “no change in the MIC”. Moreover, in test [1] (500 μM Ac2KAA, MRSA), the “fold reduction of activity in presence of Ac2KAA” value is 2 fold. Moreover, the “thickness of biofilm after treatment” value in test [2] was 7.4 μm. For the same molecule, the “reduction of thickness of biofilms” value in test [2] (mature MRSA biofilm) is given as “about 40%”.
